Experiments:
gram-positive bacteria = test: Killing and suppressing gram-positive bacteria; type: cell-based
P. acnes ATCC#11827 [1] = test: MIC via Zone of Inhibition testing, P. acnes; type: cell-based, Propoinibacterium acnes
Method: (§1) For culture preparation, an overnight Tryptic Soy Agar (TSA) culture was grown with M. luteus ATCC #10240. This culture was washed and diluted with saline to 85% transmittance at 530 nm. An overnight anaerobic culture of P. acnes ATCC#11827 was prepared in Brain Heart Infusion Broth (BHIB). This was washed with saline and diluted to 85% transmittance at 530 nm. An overnight aerobic culture of C. xerosis ATCC#373 was also grown in BHIB, washed with saline and diluted to 85% transmittance at 530 nm. These cultures were used as inocula. Three sets of nine different dilutions of sample were prepared for MIC results using TSA or BHIB as follows: (1) 2.0 grams sample+8.0 mL media=1:5 or 20%; (2) 2.0 mL of #1+8.0 mL media=1:25 or 4%; (3) 2.0 mL of #2+8.0 mL media=1:125 or 0.8%; (4) 2.0 mL of #3+8.0 mL media=1:625 or 0.16%; (5) 2.0 mL of #4+8.0 mL media=1:3125 or 0.032%; (6) 2.0 mL of #5+8.0 mL media=1:15625 or 0.0064%; (7) 2.0 mL of #6+8.0 mL media=1:78125 or 0.00128%; (8) 2.0 mL of #7+8.0 mL media=1:390625 or 0.000256%; and (9) 2.0 mL of #8+8.0 mL media=1:1953125 or 0.0000512%.
(§2) The product dilutions were dispensed onto Zone of Inhibition plates. TSA and BHIB plates were prepared by using the base and seed method. Seed consisted of 2.0 mL of inoculum per 20.0 mL of TSA or BHIB used. A single penicylinder placed in the center of the plate when agar was solidified. Each penicylinder was inoculated with 200 μL of the MIC dilutions listed above; this procedure was performed in duplicate. Control plates were performed simultaneously; also using the base and seed method. M. luteus plates were incubated for 48 hours at 30° C. to 35° C. P. acnes plates were incubated for 5-7 days 36° C. to 38° C. anaerobically, C. xerosis plates were incubated aerobically at 36° C. to 38° C. Plates were measured for zones and calculated in millimeters.
(§3) For MLC Preparation, swabbing of the zones was performed to calculate MLC results. […] These swabs were then placed in TSA or BHIB for incubation. M. luteus tubes were incubated for 48 hours at 30° C. to 35° C. P. acnes tubes were incubated for 5-7 days at 35° C. to 38° C. anaerobically, C. xerosis tubes were incubated aerobically at 36° C. to 38° C. Tubes were inspected visually for growth and indicated below. Numbers indicate the average of the zone sizes on the two plates (in millimeters) as per MIC dilution. MLC results are recorded as positive or negative for growth.

C. xerosis ATCC#373 [2] = test: MIC via Zone of Inhibition testing, C. xerosis; type: cell-based, Corynebacterium xerosis
Method: as §1, §2, §3

C. xerosis ATCC#373 [3] = test: MLC by swabbing of the zones, C. xerosis; type: cell-based, Corynebacterium xerosis; set-up: key: (+): MLC results are recorded as positive or negative for growth; (−): MLC results are recorded as positive or negative for growth
Method: as §3

human skin = test: Irritation and sensitization of human skin; type: in vivo; conditions: at levels effective for suppressing malodor formation
[4] = Solubility in cosmetic solvents; type: physicochemical
P. acnes ATCC#11827 [5] = test: MLC by swabbing of the zones, P. acnes; type: cell-based, Propoinibacterium acnes; set-up: key: (+): MLC results are recorded as positive or negative for growth; (−): MLC results are recorded as positive or negative for growth
Method: as §3

[6] = test system: Micrococcus luteus ATCC #10240; test: MLC by swabbing of the zones, M. luteus; type: cell-based; set-up: key: (+): MLC results are recorded as positive or negative for growth; (−): MLC results are recorded as positive or negative for growth
Method: as §3

[7] = test system: Micrococcus luteus ATCC #10240; test: MIC via Zone of Inhibition testing, M. luteus; type: cell-based
Method: as §1, §2
For MLC Preparation, swabbing of the zones was performed to calculate MLC results. […] These swabs were then placed in TSA or BHIB for incubation. […] MLC results are recorded as positive or negative for growth.

CCCCCCCCCC(=O)N(C)C [dimethyl capramide, N,N-dimethyldecanamide]
killing and suppressing gram-positive bacteria (gram-positive bacteria): effective in killing and suppressing
MIC/Zone of Inhibition, average zone size (P. acnes ATCC#11827 [1]; dilution 1:5 (20%)): 21.2 millimeters
MIC/Zone of Inhibition, average zone size (P. acnes ATCC#11827 [1]; dilution 1:25 (4%)): 23.8 millimeters
MIC/Zone of Inhibition, average zone size (P. acnes ATCC#11827 [1]; dilution 1:125 (0.8%)): 18.0 millimeters
MIC/Zone of Inhibition, average zone size (P. acnes ATCC#11827 [1]; dilution 1:625 (0.16%)): 8.1 millimeters
MIC/Zone of Inhibition, average zone size (C. xerosis ATCC#373 [2]; dilution 1:5 (20%)): 20.2 millimeters
MIC/Zone of Inhibition, average zone size (C. xerosis ATCC#373 [2]; dilution 1:25 (4%)): 13.9 millimeters
MIC/Zone of Inhibition, average zone size (C. xerosis ATCC#373 [2]; dilution 1:125 (0.8%)): 17.3 millimeters
MIC/Zone of Inhibition, average zone size (C. xerosis ATCC#373 [2]; dilution 1:625 (0.16%)): 8.6 millimeters
MIC/Zone of Inhibition, average zone size (C. xerosis ATCC#373 [2]; dilution 1:3125 (0.032%)): 7.2 millimeters
MLC Results, growth from swabbed zone (C. xerosis ATCC#373 [3]; dilution 1:5 (20%)): (−)
MLC Results, growth from swabbed zone (C. xerosis ATCC#373 [3]; dilution 1:25 (4%)): (−)
MLC Results, growth from swabbed zone (C. xerosis ATCC#373 [3]; dilution 1:125 (0.8%)): (−)
MLC Results, growth from swabbed zone (C. xerosis ATCC#373 [3]; dilution 1:625 (0.16%)): (+)
MLC Results, growth from swabbed zone (C. xerosis ATCC#373 [3]; dilution 1:3125 (0.032%)): (+)
irritation of human skin (human skin): non-irritating
solubility ([4]; in cyclomethicone): greater than 50 wt. %
solubility ([4]; in propylene glycol): greater than 50 wt. %
MLC Results, growth from swabbed zone (P. acnes ATCC#11827 [5]; dilution 1:5 (20%)): (−)
MLC Results, growth from swabbed zone (P. acnes ATCC#11827 [5]; dilution 1:25 (4%)): (−)
MLC Results, growth from swabbed zone (P. acnes ATCC#11827 [5]; dilution 1:125 (0.8%)): (+)
MLC Results, growth from swabbed zone (P. acnes ATCC#11827 [5]; dilution 1:625 (0.16%)): (+)
MLC Results, growth from swabbed zone ([6]; dilution 1:5 (20%)): (−)
MLC Results, growth from swabbed zone ([6]; dilution 1:25 (4%)): (+)
MLC Results, growth from swabbed zone ([6]; dilution 1:125 (0.8%)): (+)
MIC/Zone of Inhibition, average zone size ([7]; dilution 1:5 (20%)): 14.7 millimeters
MIC/Zone of Inhibition, average zone size ([7]; dilution 1:25 (4%)): 14.2 millimeters
MIC/Zone of Inhibition, average zone size ([7]; dilution 1:125 (0.8%)): 13.6 millimeters
